Tests used:
[1] = target: Casein kinase I isoform delta (Homo sapiens, UniProt P48730); assay: Inhibition of human CK1delta using casein as substrate in presence of [gamma-32P]-ATP
[2] = Inhibition of porcine brain tubulin polymerization measured every min for 1 hr by fluorescence assay; set-up: species or system Sus scrofa
[3] = target: Casein kinase I isoform epsilon (Homo sapiens, UniProt P49674); assay: Inhibition of human CK1epsilon using casein as substrate in presence of [gamma-32P]-ATP
[4] = target: Indoleamine 2,3-dioxygenase 1 (Homo sapiens, UniProt P14902); assay: Inhibition of recombinant human IDO using L-tryptophan as substrate after 60 mins
Sequence of Indoleamine 2,3-dioxygenase 1 (P14902 whole entry, the tested form may be a part): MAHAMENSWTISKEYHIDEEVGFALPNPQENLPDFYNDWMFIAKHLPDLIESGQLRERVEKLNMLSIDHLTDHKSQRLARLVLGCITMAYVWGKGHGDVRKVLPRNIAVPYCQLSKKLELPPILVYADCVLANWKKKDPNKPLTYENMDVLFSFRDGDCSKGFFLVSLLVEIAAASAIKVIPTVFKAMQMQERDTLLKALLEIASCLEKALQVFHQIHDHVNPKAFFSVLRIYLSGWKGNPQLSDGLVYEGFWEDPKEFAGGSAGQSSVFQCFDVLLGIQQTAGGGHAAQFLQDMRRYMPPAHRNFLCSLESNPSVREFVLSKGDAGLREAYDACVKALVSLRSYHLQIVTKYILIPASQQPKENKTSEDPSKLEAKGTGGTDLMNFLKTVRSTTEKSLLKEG

[5] = target: T1, Receptor-interacting serine/threonine-protein kinase 1 (Homo sapiens, UniProt Q13546); assay: Inhibition of recombinant human GST-fused RIPK1 (1 to 497 residues) expressed in baculovirus infected insect Sf9 cells in presence of 32P-gamma-ATP after 30 mins by autoradiogram-based Western blot method
T1 sequence (Q13546 whole entry): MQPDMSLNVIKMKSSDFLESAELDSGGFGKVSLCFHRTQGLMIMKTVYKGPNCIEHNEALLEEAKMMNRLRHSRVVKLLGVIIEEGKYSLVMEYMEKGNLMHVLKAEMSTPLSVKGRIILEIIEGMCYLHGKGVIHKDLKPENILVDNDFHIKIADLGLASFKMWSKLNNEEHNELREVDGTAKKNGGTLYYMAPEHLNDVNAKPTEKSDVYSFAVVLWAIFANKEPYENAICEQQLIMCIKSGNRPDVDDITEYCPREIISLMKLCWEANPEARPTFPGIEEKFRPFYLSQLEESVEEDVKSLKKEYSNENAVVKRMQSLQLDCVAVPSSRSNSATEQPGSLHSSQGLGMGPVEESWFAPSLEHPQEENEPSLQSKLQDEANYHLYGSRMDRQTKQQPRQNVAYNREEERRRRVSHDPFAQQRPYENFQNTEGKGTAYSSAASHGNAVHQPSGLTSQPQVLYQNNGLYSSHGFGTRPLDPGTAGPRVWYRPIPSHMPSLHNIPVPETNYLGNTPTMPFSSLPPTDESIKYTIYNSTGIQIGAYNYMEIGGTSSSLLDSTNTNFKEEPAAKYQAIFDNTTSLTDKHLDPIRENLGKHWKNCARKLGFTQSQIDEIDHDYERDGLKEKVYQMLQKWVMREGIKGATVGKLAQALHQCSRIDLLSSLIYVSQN

[6] = target: T2, Ferrochelatase, mitochondrial (Homo sapiens, UniProt P22830); assay: Stabilization of FECH in human K562 cells after 1 hr by thermal shift assay; type: cell-based
T2 sequence (P22830 whole entry): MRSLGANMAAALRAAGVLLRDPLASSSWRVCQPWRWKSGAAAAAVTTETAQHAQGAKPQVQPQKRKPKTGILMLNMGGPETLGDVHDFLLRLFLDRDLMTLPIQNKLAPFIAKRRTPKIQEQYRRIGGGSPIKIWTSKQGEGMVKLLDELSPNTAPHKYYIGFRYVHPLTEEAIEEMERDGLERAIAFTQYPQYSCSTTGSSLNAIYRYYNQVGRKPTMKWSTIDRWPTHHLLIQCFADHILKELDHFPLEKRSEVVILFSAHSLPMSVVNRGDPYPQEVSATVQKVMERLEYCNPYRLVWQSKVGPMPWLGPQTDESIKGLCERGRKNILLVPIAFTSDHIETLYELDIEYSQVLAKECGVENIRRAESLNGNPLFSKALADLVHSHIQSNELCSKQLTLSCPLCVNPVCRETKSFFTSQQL

[7] = target: T3, Bromodomain-containing protein 4 (Homo sapiens, UniProt O60885)
Description: Binding affinity to recombinant human His6-TEV protease-tagged BRD4 bromodomain 1 expressed in bacteria by isothermal titration calorimetric method

[8] = target: Oxidized purine nucleoside triphosphate hydrolase (Homo sapiens, UniProt P36639)
Description: Inhibition of DsRed-fused MTH1 (unknown origin) expressed in HEK293T cells using 8-oxo-dGTP as substrate

[9] = Inhibition of tubulin polymerization in human U87 cells assessed as decrease in cell viability after 72 hrs by Alamar blue assay; type: cell-based, U-87MG ATCC; settings: U-87 MG
[10] = target: Mitogen-activated protein kinase 14 (Mus musculus, UniProt P47811); assay: Inhibition of mouse N-terminal 5His-tagged p38alpha assessed as decrease in 6His-tagged MK2a (51 to 400 residues) phosphorylation in presence of [gamma-33P]-ATP by scintillation counting method
Sequence of Mitogen-activated protein kinase 14 (P47811 whole entry, the tested form may be a part): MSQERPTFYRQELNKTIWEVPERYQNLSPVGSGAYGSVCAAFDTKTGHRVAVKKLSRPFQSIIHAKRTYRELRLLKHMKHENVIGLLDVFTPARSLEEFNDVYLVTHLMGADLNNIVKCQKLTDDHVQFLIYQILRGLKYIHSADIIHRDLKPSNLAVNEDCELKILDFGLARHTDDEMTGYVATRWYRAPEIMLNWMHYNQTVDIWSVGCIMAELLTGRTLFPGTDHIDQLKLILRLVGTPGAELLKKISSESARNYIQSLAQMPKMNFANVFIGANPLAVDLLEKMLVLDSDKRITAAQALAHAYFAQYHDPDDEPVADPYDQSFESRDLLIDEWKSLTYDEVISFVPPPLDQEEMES

[11] = target: Bromodomain-containing protein 3 (Homo sapiens, UniProt Q15059); assay: Inhibition of immobilized N-LY294002 bead binding to BRD3 (unknown origin) expressed in HEK293T cell nuclear extract incubated for 1 hr by LC-MS/MS analysis; set-up: species or system HEK-293T
Sequence of Bromodomain-containing protein 3 (Q15059 whole entry): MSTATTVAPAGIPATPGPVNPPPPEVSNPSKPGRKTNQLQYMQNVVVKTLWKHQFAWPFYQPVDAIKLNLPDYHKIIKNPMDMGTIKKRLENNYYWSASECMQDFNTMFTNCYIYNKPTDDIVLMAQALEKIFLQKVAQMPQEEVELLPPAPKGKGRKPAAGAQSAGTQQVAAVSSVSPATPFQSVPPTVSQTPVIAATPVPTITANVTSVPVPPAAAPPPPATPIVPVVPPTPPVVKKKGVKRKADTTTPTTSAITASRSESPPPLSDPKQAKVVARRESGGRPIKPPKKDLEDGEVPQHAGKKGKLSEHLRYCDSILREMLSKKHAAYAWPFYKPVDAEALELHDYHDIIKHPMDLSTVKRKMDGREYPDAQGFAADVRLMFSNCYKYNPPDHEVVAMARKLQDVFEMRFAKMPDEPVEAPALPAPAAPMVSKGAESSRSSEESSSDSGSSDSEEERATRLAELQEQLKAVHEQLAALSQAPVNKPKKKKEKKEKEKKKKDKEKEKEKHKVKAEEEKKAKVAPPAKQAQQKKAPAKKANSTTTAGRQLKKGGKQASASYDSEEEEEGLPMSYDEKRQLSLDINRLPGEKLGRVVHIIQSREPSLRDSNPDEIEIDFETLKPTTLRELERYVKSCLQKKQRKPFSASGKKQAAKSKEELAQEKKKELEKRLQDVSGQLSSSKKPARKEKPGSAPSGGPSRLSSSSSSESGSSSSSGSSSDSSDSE

[12] = target: Bromodomain-containing protein 2 (Homo sapiens, UniProt P25440); assay: Inhibition of immobilized N-LY294002 bead binding to BRD2 (unknown origin) expressed in HEK293T cell nuclear extract incubated for 1 hr by LC-MS/MS analysis; set-up: species or system HEK-293T
Sequence of Bromodomain-containing protein 2 (P25440 whole entry): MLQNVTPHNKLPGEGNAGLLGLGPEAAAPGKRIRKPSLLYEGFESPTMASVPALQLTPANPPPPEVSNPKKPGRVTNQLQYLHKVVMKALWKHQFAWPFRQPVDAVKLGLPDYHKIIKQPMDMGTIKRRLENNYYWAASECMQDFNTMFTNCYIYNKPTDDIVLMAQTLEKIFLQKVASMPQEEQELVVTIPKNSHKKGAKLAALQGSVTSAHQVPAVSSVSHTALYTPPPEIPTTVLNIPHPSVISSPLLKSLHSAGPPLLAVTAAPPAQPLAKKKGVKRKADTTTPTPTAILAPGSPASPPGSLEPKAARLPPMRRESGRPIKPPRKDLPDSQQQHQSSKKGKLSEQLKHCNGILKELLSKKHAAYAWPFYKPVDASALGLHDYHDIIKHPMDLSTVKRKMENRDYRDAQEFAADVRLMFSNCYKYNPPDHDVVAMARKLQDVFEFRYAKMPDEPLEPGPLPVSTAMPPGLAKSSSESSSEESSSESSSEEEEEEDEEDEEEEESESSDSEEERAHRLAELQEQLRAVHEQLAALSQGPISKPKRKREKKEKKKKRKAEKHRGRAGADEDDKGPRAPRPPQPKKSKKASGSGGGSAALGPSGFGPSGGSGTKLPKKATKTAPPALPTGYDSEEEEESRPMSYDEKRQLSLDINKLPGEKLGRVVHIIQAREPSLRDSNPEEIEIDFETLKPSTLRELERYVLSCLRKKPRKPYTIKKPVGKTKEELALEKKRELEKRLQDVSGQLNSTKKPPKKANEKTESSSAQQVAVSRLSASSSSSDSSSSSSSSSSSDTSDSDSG

[13] = target: T3, Bromodomain-containing protein 4; assay: Inhibition of immobilized N-LY294002 bead binding to C-terminal Flag-tagged BRD4 (unknown origin) expressed in HEK293T cell nuclear extract incubated for 1 hr by LC-MS/MS analysis; set-up: species or system HEK-293T
[14] = target: T4, Phosphatidylinositol 4,5-bisphosphate 3-kinase catalytic subunit delta isoform (Homo sapiens, UniProt O00329); assay: Inhibition of immobilized N-LY294002 bead binding to PI3Kdelta (unknown origin) expressed in HEK293T cells incubated for 1 hr by LC-MS/MS analysis; type: cell-based, HEK-293T
T4 sequence (O00329 whole entry): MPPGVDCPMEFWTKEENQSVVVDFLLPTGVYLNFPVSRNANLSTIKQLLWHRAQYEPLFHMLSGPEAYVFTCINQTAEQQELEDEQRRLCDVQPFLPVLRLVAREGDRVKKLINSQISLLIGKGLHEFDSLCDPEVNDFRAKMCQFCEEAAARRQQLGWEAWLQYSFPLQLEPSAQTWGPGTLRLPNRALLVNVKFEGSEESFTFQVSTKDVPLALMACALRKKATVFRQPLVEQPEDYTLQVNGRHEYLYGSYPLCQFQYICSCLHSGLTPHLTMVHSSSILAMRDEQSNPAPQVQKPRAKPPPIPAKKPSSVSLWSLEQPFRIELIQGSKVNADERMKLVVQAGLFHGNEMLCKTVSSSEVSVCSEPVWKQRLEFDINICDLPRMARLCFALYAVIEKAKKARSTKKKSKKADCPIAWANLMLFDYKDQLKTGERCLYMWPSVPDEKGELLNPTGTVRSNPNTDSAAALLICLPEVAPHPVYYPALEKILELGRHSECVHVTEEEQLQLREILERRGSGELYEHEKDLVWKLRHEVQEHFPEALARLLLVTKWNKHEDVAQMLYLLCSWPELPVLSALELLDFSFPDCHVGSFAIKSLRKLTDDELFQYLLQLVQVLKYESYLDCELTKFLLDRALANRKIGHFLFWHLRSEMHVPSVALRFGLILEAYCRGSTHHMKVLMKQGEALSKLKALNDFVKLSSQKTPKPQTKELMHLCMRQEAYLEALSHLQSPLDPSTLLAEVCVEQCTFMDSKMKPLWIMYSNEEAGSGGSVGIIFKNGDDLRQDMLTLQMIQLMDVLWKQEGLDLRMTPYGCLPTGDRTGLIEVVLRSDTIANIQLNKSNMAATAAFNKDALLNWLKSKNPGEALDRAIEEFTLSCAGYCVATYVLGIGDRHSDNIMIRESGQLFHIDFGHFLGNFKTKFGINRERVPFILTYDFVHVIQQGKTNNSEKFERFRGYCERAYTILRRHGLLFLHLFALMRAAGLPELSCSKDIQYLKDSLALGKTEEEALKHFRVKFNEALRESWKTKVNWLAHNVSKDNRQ

[15] = target: MAP kinase-activated protein kinase 2 (Homo sapiens, UniProt P49137); assay: Inhibition of recombinant MK2 (45 to 400 residues) (unknown origin) using fluorescein isothiocyanate-KKKALSRQLSVAA as substrate
Sequence of MAP kinase-activated protein kinase 2 (P49137 whole entry, the tested form may be a part): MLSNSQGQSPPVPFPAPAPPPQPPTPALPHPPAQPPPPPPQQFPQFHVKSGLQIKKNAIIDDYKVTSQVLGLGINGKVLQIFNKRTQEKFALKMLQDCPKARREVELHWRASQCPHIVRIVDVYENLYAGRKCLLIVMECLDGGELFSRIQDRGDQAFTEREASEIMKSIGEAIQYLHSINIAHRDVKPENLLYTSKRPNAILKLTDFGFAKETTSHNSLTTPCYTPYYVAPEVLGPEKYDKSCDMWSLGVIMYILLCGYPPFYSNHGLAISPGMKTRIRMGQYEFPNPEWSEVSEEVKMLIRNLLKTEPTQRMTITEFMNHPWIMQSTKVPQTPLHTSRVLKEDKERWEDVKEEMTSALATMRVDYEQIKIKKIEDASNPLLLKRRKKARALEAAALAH

[16] = target: Bromodomain testis-specific protein (Homo sapiens) (UniProt Q58F21)
[17] = target: T3, Bromodomain-containing protein 4; remark: listed apart in the source
[18] = Inhibition of tubulin (unknown origin) polymerization by spectrophotometric method; set-up: species or system Homo sapiens
[19] = Inhibition of porcine brain tubulin polymerization measured every min during incubation by fluorescence assay; set-up: species or system Sus scrofa
[20] = target: T5, Receptor-type tyrosine-protein kinase FLT3 (Homo sapiens, UniProt P36888); assay: Inhibition of FLT3 (unknown origin)
T5 sequence (P36888 whole entry): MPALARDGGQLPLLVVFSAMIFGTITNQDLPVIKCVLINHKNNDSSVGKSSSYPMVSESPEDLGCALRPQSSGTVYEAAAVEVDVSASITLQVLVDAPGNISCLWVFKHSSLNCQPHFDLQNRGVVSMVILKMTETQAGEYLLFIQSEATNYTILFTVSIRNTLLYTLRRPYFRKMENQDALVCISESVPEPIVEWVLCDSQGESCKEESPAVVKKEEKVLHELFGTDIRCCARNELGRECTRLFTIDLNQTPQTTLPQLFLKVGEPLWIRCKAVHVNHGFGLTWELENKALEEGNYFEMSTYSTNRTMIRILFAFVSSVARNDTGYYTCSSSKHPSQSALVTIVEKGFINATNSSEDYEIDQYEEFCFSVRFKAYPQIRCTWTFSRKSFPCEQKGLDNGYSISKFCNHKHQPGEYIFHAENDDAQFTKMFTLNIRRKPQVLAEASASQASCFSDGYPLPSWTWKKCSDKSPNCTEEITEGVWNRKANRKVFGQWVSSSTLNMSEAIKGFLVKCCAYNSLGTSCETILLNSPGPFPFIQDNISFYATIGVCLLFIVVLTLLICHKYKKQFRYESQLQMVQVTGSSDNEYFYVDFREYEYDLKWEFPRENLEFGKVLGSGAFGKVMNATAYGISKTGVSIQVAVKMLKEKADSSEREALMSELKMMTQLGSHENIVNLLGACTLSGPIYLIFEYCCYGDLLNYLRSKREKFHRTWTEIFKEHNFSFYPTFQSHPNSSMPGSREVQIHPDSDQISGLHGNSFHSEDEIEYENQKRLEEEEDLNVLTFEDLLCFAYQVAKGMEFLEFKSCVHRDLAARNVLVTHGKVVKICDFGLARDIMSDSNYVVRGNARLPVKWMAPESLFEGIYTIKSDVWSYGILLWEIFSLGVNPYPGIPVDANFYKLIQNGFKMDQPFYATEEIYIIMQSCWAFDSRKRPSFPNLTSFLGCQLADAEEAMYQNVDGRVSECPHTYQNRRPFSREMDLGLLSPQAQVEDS

[21] = target: T6, Ribosyldihydronicotinamide dehydrogenase [quinone] (Homo sapiens, UniProt P16083)
T6 sequence (P16083 whole entry): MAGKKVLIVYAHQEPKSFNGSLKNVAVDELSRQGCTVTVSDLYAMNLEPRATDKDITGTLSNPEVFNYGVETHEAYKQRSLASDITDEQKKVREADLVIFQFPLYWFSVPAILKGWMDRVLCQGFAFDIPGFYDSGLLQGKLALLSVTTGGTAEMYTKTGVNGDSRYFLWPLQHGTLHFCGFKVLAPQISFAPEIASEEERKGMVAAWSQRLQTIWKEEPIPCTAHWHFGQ
Description: Inhibition of kinobead binding to NQO2 in human K562 cells incubated for 30 mins by iTRAQ reagent-based mass spectrometric method

Sequence of Casein kinase I isoform delta (P48730 whole entry, canonical isoform): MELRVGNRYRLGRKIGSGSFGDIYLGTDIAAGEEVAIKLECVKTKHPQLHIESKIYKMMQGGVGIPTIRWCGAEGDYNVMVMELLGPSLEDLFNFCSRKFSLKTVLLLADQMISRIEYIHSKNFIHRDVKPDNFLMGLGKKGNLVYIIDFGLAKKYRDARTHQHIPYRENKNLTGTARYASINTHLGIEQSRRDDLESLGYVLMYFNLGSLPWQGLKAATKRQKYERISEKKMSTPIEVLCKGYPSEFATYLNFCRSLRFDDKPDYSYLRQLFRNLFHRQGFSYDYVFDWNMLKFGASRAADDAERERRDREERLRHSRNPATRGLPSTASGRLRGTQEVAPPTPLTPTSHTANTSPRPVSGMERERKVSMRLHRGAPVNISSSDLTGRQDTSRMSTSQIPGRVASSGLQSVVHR
Sequence of Casein kinase I isoform epsilon (P49674 whole entry, canonical isoform): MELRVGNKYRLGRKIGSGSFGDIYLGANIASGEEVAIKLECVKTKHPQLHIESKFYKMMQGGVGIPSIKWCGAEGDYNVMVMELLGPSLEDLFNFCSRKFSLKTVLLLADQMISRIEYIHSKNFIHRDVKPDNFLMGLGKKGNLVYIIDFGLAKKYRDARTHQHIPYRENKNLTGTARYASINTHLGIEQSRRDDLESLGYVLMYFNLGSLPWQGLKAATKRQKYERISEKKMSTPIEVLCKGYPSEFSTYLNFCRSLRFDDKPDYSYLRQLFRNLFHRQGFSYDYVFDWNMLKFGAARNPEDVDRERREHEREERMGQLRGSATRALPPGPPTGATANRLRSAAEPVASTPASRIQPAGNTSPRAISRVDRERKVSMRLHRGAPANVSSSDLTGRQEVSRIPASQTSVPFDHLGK

COc1cc(OC)c(/C=C2/C(=O)Nc3ccccc32)c(OC)c1
IC50 [1]: 1000 to 25000 nM | EC50 [2]: < 1000 nM | IC50 [3]: 1000 to 25000 nM

CN1C(=O)C(Cc2c[nH]c3ccccc23)NC1=S (configuration not stated) [NECROSTATIN]
IC50 [4]: 115000 nM | IC50 [5]: 182 nM

CCCS(=O)(=O)Nc1ccc(F)c(C(=O)c2c[nH]c3ncc(-c4ccc(Cl)cc4)cc23)c1F [VEMURAFENIB]
EC50 [6]: 5010 nM

CN(c1ccccc1CNc1nc(Nc2ccc3c(c2)CC(=O)N3)ncc1C(F)(F)F)S(C)(=O)=O
Kd [7]: 445 nM

Nc1nc(NCCc2ccccc2)c2nc[nH]c2n1
IC50 [8]: 100 to 220 nM

O=C(CCCc1ccc(-c2ccccc2F)cc1)Nc1ccc(O)cc1
EC50 [9]: < 1000 nM | IC50 [10]: 330 nM

O=c1cc(N2CCOCC2)oc2c(-c3ccccc3)cccc12 [LY-294002]
IC50 [11]: 13700 nM | IC50 [12]: 10300 nM | IC50 [13]: 12400 nM | IC50 [14]: 1530 nM

Oc1ccc(-c2nc(-c3ccc(F)cc3)c(-c3ccncc3)[nH]2)cc1 [SB-202190]
Kd [7]: 3400 nM

Cc1ccc(-c2ccc3c(ccc4sc5c(c43)NC[C@@H](C)NC5=O)n2)cn1
Ki [15]: 5 nM

C[S+]([O-])c1ccc(-c2nc(-c3ccc(F)cc3)c(-c3ccncc3)[nH]2)cc1 (configuration not stated)
ΔTm [16]: 0.85 °C | ΔTm [17]: 1.3 °C

O=C(c1ccccc1-c1ccccc1)N1CCc2c([nH]c3ccccc23)C1
EC50 [18]: < 1000 nM

CC[C@@H]1C(=O)N(C)c2cnc(Nc3ccc(C(=O)N[C@H]4CC[C@H](N5CCN(CC6CC6)CC5)CC4)cc3OC)nc2N1C(C)C [VOLASERTIB]
Kd [7]: 79 nM

O=C1NC(=O)[C@@H](c2cn3c4c(cccc24)CCC3)[C@@H]1c1c[nH]c2ccccc12 [TIVANTINIB]
EC50 [19]: < 1000 nM

Cc1cnc(Nc2ccc(N3CCN(C)CC3)cc2)nc1Nc1cccc(S(=O)(=O)NC(C)(C)C)c1
IC50 [20]: 25 nM

Cc1cn(-c2cc(NC(=O)c3ccc(C)c(Nc4nccc(-c5cccnc5)n4)c3)cc(C(F)(F)F)c2)cn1 [NILOTINIB]
IC50 [21]: 1800 nM

O=c1cc(N2CCNCC2)oc2c(-c3ccccc3)cccc12
IC50 [11]: 11500 nM | IC50 [12]: 7400 nM | IC50 [13]: 9050 nM

CC1(C)CC2CC(C)(CN2c2ncnc3[nH]cnc23)C1 (configuration not stated)
IC50 [8]: 100 to 220 nM
